This note sets out measurements from ChEMBL document CHEMBL3639255, “Bivalent diazo bicyclic Smac mimetics and the uses thereof” (2014).

pIC50: −log10 of the molar value. Some results are limits rather than exact numbers.

What is called pIC50 is the IC50 on a negative log10 scale, so that one unit is a factor of ten.

Test [1] has as its target Baculoviral IAP repeat-containing protein 3 (Homo sapiens, UniProt Q13489). The test can be described thus: (§1) Fluorescence Polarization-Based Assays: An in vitro fluorescence polarization (FP) based binding assay was used to test the binding ability of the compounds of the present invention to certain IAP proteins (Nikolovska-Coleska et al., Anal. Biochem. 332:261-73 (2004)). he FP-based assay for XIAP BIR3 protein was described in detail previously (Nikolovska-Coleska et al., Anal. Biochem. 332:261-73 (2004)). Briefly, 5-carboxyfluorescein was coupled to the lysine side chain of a mutated Smac peptide with the sequence (AbuRPFK-Fam) and this fluorescently tagged peptide (named SM5F) was used as the fluorescent tracer in FP-based binding assay to XIAP BIR3.

In test [2] the target is Baculoviral IAP repeat-containing protein 2 (Homo sapiens, UniProt Q13490). The description is as §1.
Sequence of Baculoviral IAP repeat-containing protein 2 (Q13490 whole entry, looked up, change not shown): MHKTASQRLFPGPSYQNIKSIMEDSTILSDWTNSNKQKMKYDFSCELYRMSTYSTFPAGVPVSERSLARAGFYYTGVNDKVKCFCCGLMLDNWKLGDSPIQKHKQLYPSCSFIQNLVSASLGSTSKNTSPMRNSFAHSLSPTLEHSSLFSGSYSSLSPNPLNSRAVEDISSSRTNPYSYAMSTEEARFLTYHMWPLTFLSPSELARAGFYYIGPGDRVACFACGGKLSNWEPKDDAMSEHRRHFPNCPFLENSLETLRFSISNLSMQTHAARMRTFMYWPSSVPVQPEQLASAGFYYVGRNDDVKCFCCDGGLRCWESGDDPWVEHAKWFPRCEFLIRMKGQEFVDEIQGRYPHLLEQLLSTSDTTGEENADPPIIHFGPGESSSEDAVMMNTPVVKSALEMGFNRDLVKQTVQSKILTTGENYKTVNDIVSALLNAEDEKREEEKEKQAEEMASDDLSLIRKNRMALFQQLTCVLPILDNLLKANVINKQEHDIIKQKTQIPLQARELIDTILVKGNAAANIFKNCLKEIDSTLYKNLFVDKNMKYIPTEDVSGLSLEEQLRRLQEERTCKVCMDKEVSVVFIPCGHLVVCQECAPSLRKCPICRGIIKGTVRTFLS

Sequence of Baculoviral IAP repeat-containing protein 3 (Q13489 whole entry, looked up, stated change not applied): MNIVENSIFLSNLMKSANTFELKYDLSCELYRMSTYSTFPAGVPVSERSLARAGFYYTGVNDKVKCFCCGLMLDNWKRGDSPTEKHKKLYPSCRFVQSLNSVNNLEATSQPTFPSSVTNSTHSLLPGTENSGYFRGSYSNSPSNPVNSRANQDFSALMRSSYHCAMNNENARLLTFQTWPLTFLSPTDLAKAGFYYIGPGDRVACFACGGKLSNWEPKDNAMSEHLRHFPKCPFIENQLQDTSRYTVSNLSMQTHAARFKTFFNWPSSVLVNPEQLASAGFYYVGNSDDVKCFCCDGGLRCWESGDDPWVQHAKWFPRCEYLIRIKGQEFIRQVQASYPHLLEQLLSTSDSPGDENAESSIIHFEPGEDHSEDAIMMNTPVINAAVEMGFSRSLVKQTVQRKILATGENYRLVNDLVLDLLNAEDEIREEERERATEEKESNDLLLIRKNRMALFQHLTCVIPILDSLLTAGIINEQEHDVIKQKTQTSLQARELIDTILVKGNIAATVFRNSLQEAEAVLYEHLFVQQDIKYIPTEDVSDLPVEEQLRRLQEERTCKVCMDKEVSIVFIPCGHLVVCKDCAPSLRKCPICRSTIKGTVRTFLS

In test [1], `CN[C@@H](C)C(=O)N[C@H]1CN(C(=O)CCCCCCCCCCC(=O)N2CC[C@H]3CC[C@@H](c4nc5c(-c6ccccc6)cccc5[nH]4)N3C(=O)[C@@H](NC(=O)[C@H](C)NC)C2)CC[C@H]2CC[C@@H](c3nc4c(-c5ccccc5)cccc4[nH]3)N2C1=O` gave a pIC50 of over 7.30.
The compound `C=CC(C=C)c1cccc2[nH]c([C@@H]3CC[C@@H]4CCN(C(=O)CCCCCCCCCCC(=O)N5CC[C@H]6CC[C@@H](c7nc8c(-c9ccccc9)cccc8[nH]7)N6C(=O)[C@@H](NC(=O)[C@H](C)NC)C5)C[C@H](NC(=O)[C@H](C)NC)C(=O)N43)nc12` showed a pIC50 in test [2] of over 7.30.
